From publication PMC8225008, “Development of Non-Ethoxypropanoic Acid Type Cryptochrome Inhibitors with Circadian Molecular Clock-Enhancing Activity by Bioisosteric Replacement” (Pharmaceuticals, 2021) come the findings set out here.

Structures are written as SMILES.

In general, IC50 refers to the point on the concentration scale where inhibition reaches its midpoint. Read a low IC50 as higher potency.

For this test, the target named is T1, CYP1A2 (Homo sapiens, UniProt P05177).
T1 construct: pooled human liver microsomes (HLMs, XTreme 200, XenoTech, Lenexa, KS, USA); tissue XenoTech XTreme 200; host or cells: pooled human liver microsomes
T1 sequence (P05177 1-516): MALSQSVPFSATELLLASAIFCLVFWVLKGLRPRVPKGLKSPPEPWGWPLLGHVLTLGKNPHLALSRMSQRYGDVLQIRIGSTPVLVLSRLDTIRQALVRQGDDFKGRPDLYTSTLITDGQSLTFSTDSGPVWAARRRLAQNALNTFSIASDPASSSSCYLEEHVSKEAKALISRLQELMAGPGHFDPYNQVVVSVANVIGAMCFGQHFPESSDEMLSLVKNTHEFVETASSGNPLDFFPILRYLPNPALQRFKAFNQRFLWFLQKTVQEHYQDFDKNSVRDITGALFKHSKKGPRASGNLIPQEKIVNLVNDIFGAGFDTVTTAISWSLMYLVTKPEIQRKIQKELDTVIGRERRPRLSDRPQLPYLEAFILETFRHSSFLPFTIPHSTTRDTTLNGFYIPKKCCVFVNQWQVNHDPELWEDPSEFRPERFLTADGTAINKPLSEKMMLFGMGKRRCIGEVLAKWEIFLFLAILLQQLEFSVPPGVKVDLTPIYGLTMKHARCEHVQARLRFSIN
The test is described as follows: Cytochrome P450 inhibition assay (cocktail method, human liver microsomes), phenacetin O-deethylation. Type of test: in vitro ADME. The protocol: The inhibitory effects of KS15 and compound 5d on the metabolism of five cytochrome P450 (P450) probe substrates were evaluated using previous methods with slight modifications. The following P450 probe substrates were used: phenacetin (100 μM) for CYP1A2, tolbutamide (100 μM) for CYP2C9, omeprazole (20 μM) for CYP2C19, dextromethorphan (5 μM) for CYP2D6, and midazolam (5 μM) for CYP3A. Incubation mixtures containing pooled human liver microsomes (HLMs, XTreme 200, XenoTech, Lenexa, KS, USA), P450 probe substrates, and KS15 or compound 5d (final concentrations: 0, 0.5, 2, 5, 20, and 50 μM) were preincubated for 5 min at 37 °C. […] After centrifugation at 18,000× g (5 min, 4 °C), supernatant aliquots were analyzed by liquid chromatography-tandem mass spectrometry (LC-MS/MS). […]
All metabolites and IS were separated on a Kinetex C18 column (100 mm × 2.1 mm, 2.6 μm ID., Phenomenex, Torrance, CA, USA) and analyzed using an LC-MS/MS system (LCMS 8060, Shimadzu, Tokyo, Japan) equipped with an electrospray ionization (ESI) interface. […]
The EC50 values for luciferase reporter assay were calculated based on a logistic four-parametric equation using the mean values of intrinsic activation (SigmaPlot 10.0; Systat Software Inc., San Jose, CA, USA). […] Pharmacokinetic parameters were calculated using non-compartmental analysis (WinNonlin v.8.3; Pharsight, Mountain View, CA, USA). […]
(Liver microsomes are a subcellular fraction often used to study metabolism.)

Consider `COC(=O)COc1cccc(C(C)=NOCc2ccc([N+](=O)[O-])cc2)c1` [Compound 5d, Methyl 2-(3-(1-(((4-nitrobenzyl)oxy)imino)ethyl)phenoxy)acetate], for which the IC50 is above 50 µM.
